Target: Acetylcholinesterase (Electrophorus electricus, UniProt O42275)
Test: Inhibition of electric eel acetylcholinesterase

Sequence of Acetylcholinesterase (O42275 whole entry): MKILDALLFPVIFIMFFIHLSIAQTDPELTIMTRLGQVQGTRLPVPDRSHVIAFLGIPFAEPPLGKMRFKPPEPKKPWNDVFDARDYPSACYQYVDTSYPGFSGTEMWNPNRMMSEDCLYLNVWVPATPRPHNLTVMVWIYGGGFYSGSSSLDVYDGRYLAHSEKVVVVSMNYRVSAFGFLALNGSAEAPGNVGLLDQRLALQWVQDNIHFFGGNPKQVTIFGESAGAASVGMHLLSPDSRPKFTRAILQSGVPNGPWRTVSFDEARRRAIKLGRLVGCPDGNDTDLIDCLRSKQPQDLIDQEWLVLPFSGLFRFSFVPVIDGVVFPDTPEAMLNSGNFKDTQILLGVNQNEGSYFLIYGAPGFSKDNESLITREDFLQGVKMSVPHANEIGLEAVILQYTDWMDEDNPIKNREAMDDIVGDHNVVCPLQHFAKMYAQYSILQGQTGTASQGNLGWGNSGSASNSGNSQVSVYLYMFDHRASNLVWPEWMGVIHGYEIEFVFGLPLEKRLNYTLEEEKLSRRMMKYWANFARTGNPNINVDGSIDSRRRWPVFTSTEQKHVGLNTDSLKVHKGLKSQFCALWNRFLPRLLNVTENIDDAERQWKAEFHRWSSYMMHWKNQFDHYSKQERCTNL

| Compound | IC50 |
| --- | --- |
| C=C(C)CN1CC[C@@]23C=C[C@H](O)C[C@@H]2Oc2c(OC)ccc(c23)C1 | 160 nM |
| C=CCN1CC[C@@]23C=C[C@H](O)C[C@@H]2Oc2c(OC)ccc(c23)C1 [N-ALLYLNORGALANTHAMINE] | 180 nM |

— ChEMBL document CHEMBL1141550, “N-Alkylated galanthamine derivatives: Potent acetylcholinesterase inhibitors from Leucojum aestivum” (Bioorg Med Chem Lett, 2008)
